Test results from US20080234299A1, “Quinazolinones” (MERCK PATENT GMBH, priority 2005, published 2008).

Test system: cells
Test: cell cycle experiments (G2/M)
Type: cell-based

In the case of `N=C(N)c1ccc(OCCCCCOc2ccc(C(=N)N)cc2)cc1` [pentamidine], the “effect on cell cycle” value is reported as “maintain cells in the G2/M cell cycle”.
